Experimental data published in patent US9028855B2, “Plant additives and uses thereof to modulate the synthesis of membrane glycerolipids in planta” (Commissariat a l'Energie Atomique et aux Energies …, priority 2009, dated 2015).

How the values were obtained:
A. thaliana = test: Root growth (primary root) of plants on high phosphate medium supplied with compound; assay type: in vivo; conditions: expressed as a percentage having regard to a control; +P control 100, −P 20
From the text: In response to phosphate starvation, the primary root growth is inhibited (Svistoonoff et al., 2007).

phopholipase Dz2 = test: PLDz::GUS, follow-up of the expression of the gene encoding phospholipase Dz2 (GUS staining); assay type: in vivo, A. thaliana; conditions: high phosphate medium + MC2 5 μM, FIG. 10
Method: (§1) pPLDZ2:GUS-GFP cell line is as described by Cruz-Ramirez et al. (Cruz-Ramirez et al., 2006), and expressed a GUS-GFP fusion under the control of the pldz2 promoter. […] Plants were examined for GUS activity by dipping the samples in a GUS staining solution (50 mM sodium phosphate buffer pH 7.0; 0.01% Triton X-100, 1 mM K3Fe(CN)6, 1 mM K4Fe(CN)6, 1 mg/ml 5-dromo-4-chloro-3-indolyl (3-D-GLUCURONIDE (X-Gluc A) and incubated at 37° C. over-night. After staining, the plants were fixed 2 hours in 50 mM sodium phosphate buffer pH 7.0; 1% glutaraldehyde; 4% formaldehyde. In response to phosphate starvation, the lipid metabolism is modified (Benning and Ohta, 2005). Plants preferentially synthesize sulpho- and galacto-lipids instead of phospholipids. Several enzymes are involved in this remobilisation.

enzyme MGD3 = test: MGD3::GUS, follow-up of the expression of the gene encoding the enzyme MGD3 (GUS staining); assay type: in vivo, A. thaliana; conditions: high phosphate medium + MC2 5 μM, FIG. 9
Method: as §1, with “pMGD3:GUS cells are” for “pPLDZ2:GUS-GFP cell line is”, “Kobayashi” for “Cruz-Ramirez”, “(Kobayashi” for “(Cruz-Ramirez”, “2004). In these cells, the GUS reporter is” for “2006), and”, “expressed” for “expressed a GUS-GFP fusion”, “mgd3” for “pldz2”

ferritin = test: Western blot of plant ferritin on leaf protein extracts; assay type: in vivo; conditions: leaves, high phosphate medium + MC2 5 μM, FIG. 12
From the text: After SDS-PAGE in a 12% acrylamide gel and transfer onto a nitrocellulose membrane, ferritin was immunodetected with a primary rabbit polyclonal antibody against AtFER1 and a secondary goat antirabbit antibody conjugated with alkaline phosphatase.
From previous study in the lab, it is known that in response to phosphate starvation, iron is accumulated in cells inducing ferritin accumulation (Hirsch et al., 2006). To determine MC2 effect on iron metabolism, the iron content was quantified by ICP-OES (FIG. 11), accumulation of ferritin was analyzed by Western Blot (FIG. 12) and finally IRT1 gene expression was analyzed, since this gene encodes an iron transporter (FIG. 12).

Cc1cccc(NC=C2C(=O)CC(C)(C)CC2=O)n1 [MC2]
Root Growth (A. thaliana): 51 % of control
PLDζ2 expression (in words) (phopholipase Dz2): strongly expressed
MGD3 expression (in words) (enzyme MGD3): strongly expressed
ferritin accumulation (Western blot) (ferritin): not in response to MC2 treatment
